Reference: patent publication US20210246115A1 (Bioimics AB, priority 2017, published 2021)
Counter-ions that a name gives are not always drawn. Like-named read-outs stand apart in the source and are kept apart here.

How the values were obtained:
[1] = tested on: Enterococcus faecalis (ATCC29212); assay: MIC, broth microdilution (CLSI), Enterococcus faecalis; assay type: cell-based; details: ATCC29212, Table XIV A. Gram-positive bacteria, read-out: E. faecalis ATCC 29212 MIC
[2] = tested on: Pseudomonas aeruginosa (ATCC27853); assay: MIC, broth microdilution (CLSI), Pseudomonas aeruginosa; assay type: cell-based; details: ATCC27853, Table XIV B. Gram-negative bacteria, read-out: P. aeruginosa ATCC 27853 MIC
[3] = tested on: Staphylococcus aureus subsp. aureus (ATCC29213); assay: MIC, broth microdilution (CLSI), Staphylococcus aureus ATCC29213; assay type: cell-based; details: Staphylococcus aureus, read-out: S. aureus ATCC 29213 MIC
[4] = tested on: E. coli RNase P RNA, M1 RNA; assay: Inhibition of bacterial RNase P activity, IC50 determination (cleavage of pATSerUG by M1 RNA); assay type: biochemical; details: NI: No inhibition
[5] = tested on: S. aureus MRSA ATCC 33591; assay: MIC, S. aureus MRSA ATCC 33591; assay type: cell-based; details: Staphylococcus aureus; Table XIV A. Gram-positive bacteria; read-out: S. aureus MRSA ATCC 33591 MIC
[6] = tested on: S. aureus USA300 MRSA BAA-1717; assay: MIC, S. aureus USA300 MRSA BAA-1717; assay type: cell-based; details: Staphylococcus aureus; Table XIV A. Gram-positive bacteria; read-out: S. aureus USA300 MRSA BAA-1717 MIC
[7] = tested on: E. faecium ATCC 700221; assay: MIC, E. faecium ATCC 700221; assay type: cell-based; details: Enterococcus faecium, ATCC700221; Table XIV A. Gram-positive bacteria; read-out: E. faecium ATCC 700221 MIC
[8] = tested on: S. pneumoniae ATCC 49619; assay: MIC, S. pneumoniae ATCC 49619; assay type: cell-based; details: Streptococcus pneumoniae, ATCC49619; Table XIV A. Gram-positive bacteria
[9] = tested on: M. phlei ATCC 11758; assay: MIC, M. phlei ATCC 11758; assay type: cell-based; details: Mycolicibacterium phlei, ATCC11758; Table XIV A. Gram-positive bacteria
[10] = tested on: M. fortuitum ATCC 110; assay: MIC, M. fortuitum ATCC 110; assay type: cell-based; details: Mycolicibacterium fortuitum, ATCC110; Table XIV A. Gram-positive bacteria
[11] = tested on: E. coli JW5503 (efflux defective); assay: MIC, E. coli JW5503 (efflux defective); assay type: cell-based; details: Escherichia coli, read-out: E. coli JW5503 (efflux defective) MIC
[12] = tested on: K. pneumoniae ATCC 43816; assay: MIC, K. pneumoniae ATCC 43816; assay type: cell-based; details: Klebsiella pneumoniae, ATCC43816; Table XIV B. Gram-negative bacteria
[13] = tested on: H. influenzae ATCC 49247; assay: MIC, H. influenzae ATCC 49247; assay type: cell-based; details: Haemophilus influenzae, ATCC49247; Table XIV B. Gram-negative bacteria
[14] = tested on: A. baumannii ATCC 17978; assay: MIC, A. baumannii ATCC 17978; assay type: cell-based; details: Acinetobacter baumannii, ATCC17978; Table XIV B. Gram-negative bacteria
[15] = tested on: P. aeruginosa NTUH974 (MDR); assay: MIC, P. aeruginosa NTUH974 (MDR); assay type: cell-based; details: Pseudomonas aeruginosa; Table XIV B. Gram-negative bacteria; read-out: P. aeruginosa NTUH974 (MDR) MIC
[16] = tested on: N. gonorrhoeae ATCC 700825; assay: MIC, N. gonorrhoeae ATCC 700825; assay type: cell-based; details: Neisseria gonorrhoeae, ATCC700825; Table XIV B. Gram-negative bacteria
[17] = tested on: Escherichia coli (ATCC25922); assay: MIC, broth microdilution (CLSI), Escherichia coli; details: for MIC: Escherichia coli
[18] = tested on: Staphylococcus aureus (ATCC25923); assay: MIC, broth microdilution (CLSI), Staphylococcus aureus ATCC25923; details: for MIC: Staphylococcus aureus, ATCC25923, read-out: S. aureus ATCC 25923 MIC
[19] = tested on: E. coli RNase P RNA, M1 RNA; assay: Initial screening for inhibition of RNase P activity (normalised cleavage of pATSerUG at maximum compound concentration); assay type: biochemical; details: normalised cleavage (cleavage with compound / without compound) at maximum compound concentration
[20] = ATCC29213, Table XIV A. Gram-positive bacteria
[21] = ATCC25922, read-out: E. coli ATCC 25922 MIC, Table XIII
[22] = ATCC25922, read-out: E. coli ATCC 25922 MIC, Table XIV B. Gram-negative bacteria

SMILES	MIC [1] [µg/mL]	MIC [2] [µg/mL]	MIC ([3]; ATCC29213, Table XIII) [µg/mL]	MIC [3, 20] [µg/mL]	IC50 [4] [µM]	MIC [5] [µg/mL]	MIC [6] [µg/mL]	MIC [7] [µg/mL]	MIC [8] [µg/mL]	MIC [9] [µg/mL]	MIC [10] [µg/mL]	MIC [11] [µg/mL]	MIC [12] [µg/mL]	MIC [13] [µg/mL]	MIC [14] [µg/mL]	MIC [15] [µg/mL]	MIC [16] [µg/mL]	MIC [17, 21] [µg/mL]	MIC [17, 22] [µg/mL]	MIC [18] [µg/mL]	further results
Cc1cccc(C(CCN[C@H]2CC[C@H](N)CC2)c2cn(CC3CCCCC3)c3ccccc23)c1 (stereo partly drawn) [Compound 199, (1R,4R)-N1-(3-(1-(cyclohexylmethyl)-1H-indol-3-yl)-3-(m-tolyl)propyl) cyclohexane-1,4-diamine hydrochloride]	8	32	4	8	9.8	8	4	4	16	2	2	4	16	8	8	64	4	4	32	2	–
Cc1cccc(C(CCNC2CCC(N)CC2)c2cn(CC3CCCCCC3)c3ccccc23)c1 [Compound 245, (1S,4S)-N1-(3-(1-(cycloheptylmethyl)-1H-indol-3-yl)-3-(m-tolyl)propyl)cyclohexane-1,4-diamine hydrochloride salt]	4	16	4	4	13	4	2	2	8	2	2	4	8	8	4	16	2	4	4	1	–
COc1ccccc1-c1ccc2c(c1)c(CCCN[C@H]1CC[C@H](N)CC1)cn2CC1CCCCC1 [Compound 237, (1S,4S)-N1-(3-(1-(cyclohexylmethyl)-5-(2-methoxyphenyl)-1H-indol-3-yl)propyl)cyclohexane-1,4-diamine hydrochloride salt]	2	16	4	2	9.8	4	4	2	8	2	2	4	4	8	8	16	2	4	4	2	–
Cc1cccc(C(CC(=O)NCCC2CCNCC2)c2cn(Cc3ccccc3)c3ccccc23)c1.Cl (stereo not shown) [Compound 87, 3-(1-benzyl-1H-indol-3-yl)-N-(2-(piperidin-4-yl)ethyl)-3-(m-tolyl) propanamide hydrochloride salt]	–	–	–	–	–	–	–	–	–	–	–	–	–	–	–	–	–	–	–	–	Initial screening of RNase P Inhibition ([19]; hydrochloride salt): 0.30; IC50 ([4]; hydrochloride salt): 154 µM
N[C@H]1CC[C@H](NC2CCC(c3cn(CC4CCCCC4)c4ccc(Br)cc34)CC2)CC1 (single isomer, unassigned) [Compound 266, (1r,4r)-N1-(4-(5-bromo-1-(cyclohexylmethyl)-1H-indol-3-yl)cyclohexyl)cyclohexane-1,4-diamine hydrochloride salt]	2	8	2	4	–	2	2	2	8	2	2	4	4	4	8	16	2	–	4	–	IC50 ([4]; hydrochloride salt): 8.5 µM; E. coli ATCC 25922 MIC ([17]; Table XIII): 2 µg/mL; S. aureus ATCC 25923 MIC ([18]; Table XIII): 2 µg/mL
Cc1cccc(C(CCNC2CCNCC2)c2cn(CC3CCCCC3)c3ccccc23)c1.Cl (stereo not shown) [Compound 122, N-(3-(1-(cyclohexylmethyl)-1H-indol-3-yl)-3-(m-tolyl)propyl)piperidin-4-amine hydrochloride salt]	4	16	8	4	4	4	–	2	8	2	2	4	4	4	8	16	2	4	4	2	–
Cc1cccc(C(CC(=O)NCCC2CCNCC2)c2cn(Cc3ccccc3)c3ccccc23)c1.Cl (stereo not shown) [Compound 86, 3-(1-benzyl-1H-indol-3-yl)-N-(2-(piperidin-4-yl)ethyl)-3-(m-tolyl)propanamide hydrochloride salt]	–	–	–	–	–	–	–	–	–	–	–	–	–	–	–	–	–	–	–	–	Initial screening of RNase P Inhibition ([19]; hydrochloride salt): 0.78; IC50 ([4]; hydrochloride salt): 242 µM
CCn1cc(C(CC(=O)NCCC2CCNCC2)c2cccc(C)c2)c2ccccc21.Cl (stereo not shown) [Compound 84, 3-(1-ethyl-1H-indol-3-yl)-N-(2-(piperidin-4-yl)ethyl)-3-(m-tolyl)propanamide hydrochloride salt]	–	–	–	–	823	–	–	–	–	–	–	–	–	–	–	–	–	–	–	–	Initial screening of RNase P Inhibition [19]: 0.32
Cc1ccc(CN(CCc2c[nH]c3ccccc23)C(=O)CNCc2ccc(F)cc2)cc1.Cl [Compound 15, N-(2-(1H-indol-3-yl)ethyl)-2-((4-fluorobenzyl)amino)-N-(4-methylbenzyl)acetamide hydrochloride salt]	–	–	–	–	–	–	–	–	–	–	–	–	–	–	–	–	–	–	–	–	Initial screening of RNase P Inhibition [19]: 1.10
Cc1cccc(C(CC(=O)NCCC2CCNCC2)c2cn(Cc3ccccc3)c3cccnc23)c1.Cl (stereo not shown) [Compound 85, 3-(1-benzyl-1H-pyrrolo[3,2-b]pyridin-3-yl)-N-(2-(piperidin-4-yl)ethyl)-3-(m-tolyl)propanamide hydrochloride salt]	–	–	–	–	806	–	–	–	–	–	–	–	–	–	–	–	–	–	–	–	Initial screening of RNase P Inhibition [19]: 0.20
Brc1cccc(CNCCc2c[nH]c3ccccc23)n1.Cl [Compound 12, N-((6-bromopyridin-2-yl)methyl)-2-(1H-indol-3-yl)ethan-1-amine hydrochloride salt]	–	–	–	–	–	–	–	–	–	–	–	–	–	–	–	–	–	–	–	–	Initial screening of RNase P Inhibition [19]: 0.84
